Assay results: patent US5312816A, “Method of combatting osteoporosis in mammalian subjects, utilizing organic boron compounds” (priority 1993, dated 1994)
Structures can show the parent of a compound that is named as a salt. Where two headings read alike, the source gives them in different places. Values belong to the compound of their own block, whether it stands above or below them.

Key:
Elastase [1] = assay: Mouse macrophage elastase activity; assay type: cell-based; settings: 60 min incubation, read-out: Elastase IC50
Trypsin [2] = assay: Mouse macrophage trypsin (BAEE) activity; assay type: cell-based; settings: 60 min incubation, read-out: Trypsin BAEE IC50
[3] = system: Prostaglandin cyclooxygenase; assay: Mouse macrophage prostaglandin cyclooxygenase activity; assay type: cell-based; settings: 60 min incubation, read-out: Prostaglandin Cyclooxygenase IC50
Excerpt: (§1) 3. Mouse macrophages J774A.1 BALB/c
(§2) Prostaglandin synthetase purified beef seminal vesicle ^3 H arachidonic acid (86.2 Ci/mmol), tlc separation.

Prostaglandin synthetase = target: T1, Prostaglandin synthetase (Bos taurus, UniProt O62664); assay: Prostaglandin synthetase (cyclooxygenase), purified beef seminal vesicle; assay type: biochemical; settings: Table IX; commercial enzyme preparation; read-out: Beef Prostaglandin Cyclooxygenase IC50
T1 construct: Prostaglandin synthetase purified beef seminal vesicle; from tissue
T1 sequence (O62664 25-600): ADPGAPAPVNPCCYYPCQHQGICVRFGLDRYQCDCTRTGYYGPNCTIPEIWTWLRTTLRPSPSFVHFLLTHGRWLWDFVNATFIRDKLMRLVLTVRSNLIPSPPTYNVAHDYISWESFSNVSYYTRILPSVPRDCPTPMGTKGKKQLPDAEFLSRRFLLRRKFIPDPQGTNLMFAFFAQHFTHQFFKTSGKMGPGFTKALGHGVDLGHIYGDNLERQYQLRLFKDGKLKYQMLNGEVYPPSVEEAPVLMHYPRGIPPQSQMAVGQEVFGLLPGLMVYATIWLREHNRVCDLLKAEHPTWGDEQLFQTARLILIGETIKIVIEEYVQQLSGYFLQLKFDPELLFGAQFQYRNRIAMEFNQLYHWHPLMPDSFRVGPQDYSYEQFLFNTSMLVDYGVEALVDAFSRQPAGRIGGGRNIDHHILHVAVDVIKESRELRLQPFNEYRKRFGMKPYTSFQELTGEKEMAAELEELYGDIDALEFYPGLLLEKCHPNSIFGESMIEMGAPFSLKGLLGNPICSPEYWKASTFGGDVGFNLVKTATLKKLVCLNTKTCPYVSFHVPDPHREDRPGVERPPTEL
Excerpt: as §2

Cathepsin D [4] = target: T2, Cathepsin D (Mus musculus, UniProt P18242); assay: Mouse hepatic lysosomal cathepsin D activity; assay type: biochemical; settings: mouse hepatic, 60 min incubation, read-out: Cathepsin D IC50
T2 construct: azocasein assay pH 5.0
Excerpt: (§3) 1. Cf1 male mouse hepatic 10% homogenates in 0.25M sucrose+0.001MEDTA,pH 7.2.
(§4) Lysosomal Enzymes - free and total [triton X-100].
(§5) 2. Acid Cathepsin D -azocasein-pH 5.0, hydrolytic azo-peptide produce 366 nm.
Cathepsin azo casein activity -

Aryl sulphatase [5] = assay: Mouse hepatic lysosomal aryl sulphatase activity; assay type: biochemical; settings: 60 min incubation
Excerpt: as §3, §4
3. Aryl sulphatase- p-nitrocatechol sulfate, pH
5. 8 p-nitro-catechol product 510 nm.

Sprague Dawley Rats = assay: Anti-inflammatory activity in Sprague Dawley rats; assay type: in vivo; settings: Table IV; 8 mg/kg I.P.
Aryl sulphatase [6] = assay: Mouse macrophage aryl sulphatase activity; assay type: cell-based; settings: 60 min incubation, read-out: Aryl Sulphatase IC50
Acid phosphatase [7] = assay: Mouse hepatic lysosomal acid phosphatase activity; assay type: biochemical; settings: mouse hepatic, 60 min incubation
Excerpt: as §3, §4
1. Acid phosphatase -beta glycerol-3-phosphate, pH 5.0, released IP 720 nm.
Acid phosphatase activity -

Cf1 male mice [8] = assay: Writhing reflex, 0.6% acetic acid; assay type: in vivo; settings: Mus musculus, ip, Table IV
Acid phosphatase [9] = assay: Mouse macrophage acid phosphatase activity; assay type: cell-based; settings: 60 min incubation, read-out: Acid Phosphatase IC50
[10] = system: human osteoporosis fibroblastic cells; assay: Cytotoxicity against growth of human osteoporosis fibroblastic cells; assay type: cell-based; settings: Fibroblast, Table XX, read-out: Cytoxicity ED-50 Osteoporosis Fibroblasts
human osteosarcoma cells = assay: Cytotoxicity against growth of human osteosarcoma cells; assay type: cell-based; settings: Table XX; human osteosarcoma (ATCC); read-out: Cytoxicity ED-50 Osteosarcoma
testes = settings: 250 mg/kg for 16 days; cited from earlier work
[11] = system: urinary excretion of calcium, magnesium, phosphorus; settings: in the diet at 3 mg/day; cited from earlier work
Elastase [12] = assay: Mouse hepatic elastase activity; assay type: biochemical; settings: Table VI, 60 min incubation
Excerpt: as §3
(§6) 2. Elastase- N-succinyl-L-alanyl-L-alanine-p-nitroanilide, pH 8.0, p-nitro anilide 410 nm.
Elastase activity - in vitro

Pg. cyclooxygenase = target: T3, Pg. cyclooxygenase (Sus scrofa, UniProt A0A287ANF9); assay: Porcine seminal vesicles Pg. cyclooxygenase; assay type: biochemical
T3 construct: Porcine Seminal; from tissue; the methods section prints beef seminal vesicle

Trypsin [13] = assay: Mouse hepatic trypsin activity; assay type: biochemical; settings: 60 min incubation
Excerpt: as §3
1. Trypsin- N-benzoyl-L-arginine ethyl ester pH 8.0, hydrolytic product 253 nm.

Cf1 male mice [14] = assay: Hot plate tail flick test; assay type: in vivo; settings: Table XIV; unit not given
Cathepsin D [15] = target: T2, Cathepsin D; assay: Mouse macrophage cathepsin D activity; assay type: cell-based; settings: 60 min incubation
Excerpt: as §1, §5

[16] = target: T4, Porcine Pancreatic Elastase (Sus scrofa, UniProt P00772); assay: Porcine pancreatic elastase activity in vitro; assay type: biochemical; settings: Table IX; commercial enzyme preparation
T4 construct: purchased; host or cells: porcine pancreas
Excerpt: as §6

[17] = target: Clostridium histolyticum Collagenase Type I; assay: Commercial collagenase type I; assay type: biochemical; settings: Table IX; commercial enzyme preparation
Excerpt: (§7) 3. Collagenase I, Clostridium histolyticum, bone, skin, tendon, blood vessel, dentine, GI. substrate: rat collagen, N-[propionate-2-3-^3 H] propionylated measured as dpm released.

Commercial Collagenase = assay: Commercial collagenase (type not stated); assay type: biochemical; settings: Table XVI; 60 min incubation
Excerpt: as §7
4. Collagenase II, Clostridium histolyticum, cartilage collagen.

Cf1 male mice [18] = assay: Writhing reflex, 0.6% acetic acid; assay type: in vivo; settings: Table XIV; unit inferred; unit assumed
Protocol: Writhing reflex- Cf1 -male mice- 0.6% acetic acid I.P. drugs administered @20 mg/kg/ I.P. 20 min. later - the # of stretches/10 min.
Hendershot, L.C., et al, J.

Cf1 male mice [19] = assay: Anti-inflammatory screen, Winter's test, 2% carrageenan hind foot; assay type: in vivo; settings: Table XIV; unit inferred; unit assumed
Protocol: Anti-inflammatory Screen- Cf1 - male mice-Winter's Test 2% carrageenan S.C. plantar surface of hind foot, drugs administered @8 or 10 mg/kg I.P. 2X
Winter, C.A., et al, Proc. Soc.

[20] = Table VII, mouse macrophage cultured cells

T2 sequence (P18242 65-410): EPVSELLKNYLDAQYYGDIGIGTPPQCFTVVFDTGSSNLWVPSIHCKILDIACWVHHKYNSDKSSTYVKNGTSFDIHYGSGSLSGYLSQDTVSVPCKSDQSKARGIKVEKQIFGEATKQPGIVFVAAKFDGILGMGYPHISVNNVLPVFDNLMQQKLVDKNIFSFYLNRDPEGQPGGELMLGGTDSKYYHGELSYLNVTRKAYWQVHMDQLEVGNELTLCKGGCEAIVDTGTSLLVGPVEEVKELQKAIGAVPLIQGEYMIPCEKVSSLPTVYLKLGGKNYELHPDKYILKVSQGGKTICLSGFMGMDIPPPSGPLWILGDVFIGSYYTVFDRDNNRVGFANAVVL
T3 sequence (A0A287ANF9 25-600): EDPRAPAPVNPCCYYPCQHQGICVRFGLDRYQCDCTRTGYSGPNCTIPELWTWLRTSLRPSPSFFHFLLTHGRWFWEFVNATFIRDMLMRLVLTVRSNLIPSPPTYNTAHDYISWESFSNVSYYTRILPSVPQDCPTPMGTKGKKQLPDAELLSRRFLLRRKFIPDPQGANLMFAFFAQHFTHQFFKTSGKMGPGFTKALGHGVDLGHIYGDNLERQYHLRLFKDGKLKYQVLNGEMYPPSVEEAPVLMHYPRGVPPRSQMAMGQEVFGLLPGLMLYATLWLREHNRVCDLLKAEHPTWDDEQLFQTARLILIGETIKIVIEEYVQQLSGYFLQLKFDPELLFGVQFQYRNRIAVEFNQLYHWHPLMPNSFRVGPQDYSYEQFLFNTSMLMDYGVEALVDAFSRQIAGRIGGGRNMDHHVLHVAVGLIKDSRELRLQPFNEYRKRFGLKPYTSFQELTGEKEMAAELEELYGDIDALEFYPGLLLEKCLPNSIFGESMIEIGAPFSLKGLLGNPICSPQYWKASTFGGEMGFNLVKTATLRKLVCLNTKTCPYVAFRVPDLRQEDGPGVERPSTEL
T4 sequence (P00772 27-266): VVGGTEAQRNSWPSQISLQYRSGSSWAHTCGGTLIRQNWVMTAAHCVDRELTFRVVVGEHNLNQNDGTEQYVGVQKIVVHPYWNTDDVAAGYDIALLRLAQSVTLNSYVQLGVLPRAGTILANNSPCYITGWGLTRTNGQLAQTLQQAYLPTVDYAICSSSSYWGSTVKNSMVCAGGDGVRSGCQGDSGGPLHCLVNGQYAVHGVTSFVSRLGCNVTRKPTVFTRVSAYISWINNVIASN

- IC50 (Elastase [1]; Table VIII, mouse macrophages): 1.49 µM
- IC50 (Trypsin [2]; Table VIII, mouse macrophages): 2.14 µM
- IC50 ([3]; Table VIII, mouse macrophages): 1.61 µM
- IC50 (Prostaglandin synthetase): 1.3 µM
- IC50 (Cathepsin D [4]; Table V): 3.66 µM
- IC50 (Aryl sulphatase [5]; Table V): 5.85 µM
- IC50 (Aryl sulphatase [6]; [20]): 1.37 µM
- IC50 (Acid phosphatase [7]; Table V): 4.22 µM
- IC50 (Acid phosphatase [9]; [20]): 3.96 µM
Structure (SMILES): C[N+](C)(C)[BH2-]C(=O)NO [Compound 14, Trimethylamine-boranecarbohydroxamic acid tetraphenylborate salt.]
- Anti-Inflammatory Activity Sprague Dawley Rats (Sprague Dawley Rats): 60 % Control
- response vs control in vivo at 8 mg/kg (Cf1 male mice [8]; 8 mg/kg I.P.): 50%
- IC50 [10]: 1.21 µg/mL
- IC50 (human osteosarcoma cells): 1.14 µg/mL

Structure (SMILES): OB(O)O [boric acid]
- effect on testes (testes): severe degeneration of the testes with giant cell formation, pyknosis and exfoliation
- urinary excretion of calcium, magnesium and perhaps phosphorus [11]: blocks the urinary excretion of calcium, magnesium and perhaps phosphorus

Structure (SMILES): C[NH+](C)[BH2-]C(=O)O [Compound 23, Dimethylamine-carboxyborane, sodium salt]
- IC50 (Elastase [1]; Table VIII, mouse macrophages): 2.67 µM
- IC50 (Elastase [1]; Table XVIII, mouse macrophage): 6.35 µM
- IC50 (Trypsin [2]; Table VIII, mouse macrophages): 3.1 µM
- IC50 (Trypsin [2]; Table XVIII, mouse macrophage): 2.21 µM
- IC50 ([3]; Table VIII, mouse macrophages): 2.91 µM
- IC50 ([3]; Table XVIII, mouse macrophage): 2.07 µM
- IC50 (Elastase [12]): 25.9 µM
- IC50 (Prostaglandin synthetase): 3.25 µM
- IC50 (Pg. cyclooxygenase): 3.1 µM
- IC50 (Cathepsin D [4]; Table V): 3.76 µM
- IC50 (Cathepsin D [4]; Table XV): 7.65 µM
- IC50 (Aryl sulphatase [5]; Table XV): 2.83 µM
- IC50 (Trypsin [13]; Table VI, mouse hepatic, read-out: Trypsin IC50): 0.83 µM
- IC50 (Trypsin [13]; Table XVI, read-out: Mouse Hepatic Trypsin IC50): 9.95 µM
- Anti-Inflammatory Activity Sprague Dawley Rats (Sprague Dawley Rats): 55 % Control
- Tail Flick Mice (Cf1 male mice [14]): 156
- IC50 (Cathepsin D [15]; Table VII, mouse macrophage cultured cells, DMEM +10% FCS +P/S, read-out: Cathepsin D IC50): 6.39 µM
- IC50 (Cathepsin D [15]; Table XVII, mouse macrophage, read-out: Cathepsin D pH 5.0 IC50): 2.28 µM
- IC50 [16]: 37.3 µM
- IC50 (Aryl sulphatase [6]; Table XVII, mouse macrophage): 1.6 µM
- IC50 (Acid phosphatase [7]; Table V): 7.89 µM
- IC50 (Acid phosphatase [7]; Table XV): 3.58 µM
- IC50 [17]: 667 µM
- IC50 (Commercial Collagenase): 506 µM
- Writhing Reflex Mice (Cf1 male mice [18]): 70.4%
- response vs control in vivo at 20 mg/kg (Cf1 male mice [8]): 2%
- IC50 (Acid phosphatase [9]; [20]): 4.75 µM
- IC50 (Acid phosphatase [9]; Table XVII, mouse macrophage): 1.42 µM
- Anti-Inflammation Cf1 Mice (Cf1 male mice [19]): 68.5%
